From patent US20160235717A1, “BENDAMUSTINE PHARMACEUTICAL COMPOSITIONS” (LUITPOLD PHARMACEUTICALS, INC., priority 2013, published 2016)
≈ marks a conversion by molar mass, not a printed value. Where a name gives a salt, the structure may show the parent alone.

What was measured:
[1] = Dissolution of bendamustine HCl in DMSO/water at 15° C. (Example 6); format: physicochemical
Method: 37.5 ml of water was placed in a glass beaker and mixing was initiated at about 350 rpm. 2.1266 g mannitol added and mixed for about 5 minutes. About 12.5 ml of DMSO was added and solution brought to about 15° C. 1.2672 g of bendamustine HCl added and mixed. A milky solution was the result.
The sample was not used for analysis purposes, however, 3 ml of DMSO was added and the sample was cloudy. Another 3 ml of DMSO was added and the solution started to clear up. The addition of DMSO corresponds to about 35% DMSO.

[2] = Water uptake of anhydrous Bendamustine HCl; format: physicochemical
Method: Bendamustine HCl was an anhydrous form with a water content level of nmt 1.0%. The Bendamustine HCl used herein was not the Form 1 polymorph and was at least similar to an anhydrous version of the Form 2 polymorph. A sample of Bendamustine HCl anhydrous (with a thickness of about 2 mm was is saturated in water after 60 minutes and the water level reached about 4.7-4.8%. Exposing the Bendamustine HCl to atmospheric conditions for 1 hour caused the % water to increase to about 4.5%, corresponding to the monohydrate form (MW Bendamustine HCl=394.7 g/mol and H2O=18 g/mol; [(394.7+18)/394.7]100=104.6%).

[3] = cited from earlier work

| Compound | solubility in 75% water ([1]; 25 mg/ml with mannitol 42.5 mg/ml in DMSO 25% v/v in water, about 15° C. (sample 6IB130709-1), a milky solution resulted) | water level when saturated in water ([2]; anhydrous sample, thickness about 2 mm, after 60 minutes) | % water after exposure to atmospheric conditions ([2]; exposure for 1 hour, corresponds to the monohydrate form) | solubility limit in the preferred Treanda® formulation ([3]; at 5° C., disclosed in U.S. Pat. No. 8,436,190B2) | DMSO content optimal for dissolution ([1]; at 15° C., DMSO added to sample 6IB130709-1 until the solution started to clear up) | solubility in DMSO ([3]; at 25° C., has been reported) | solubility in water ([3]; at 25° C., has been reported) |
| --- | --- | --- | --- | --- | --- | --- | --- |
| Cn1c(CCCC(=O)O)nc2cc(N(CCCl)CCCl)ccc21 [Bendamustine HCl] | not found to be soluble | 4.7-4.8% | about 4.5% | 27 mg/mL | – | – | – |
| Cn1c(CCCC(=O)O)nc2cc(N(CCCl)CCCl)ccc21 [bendamustine, 4-[5-[Bis(2-chloroethyl)amino]-1-methylbenzimidazol-2-yl]butanoic acid] | – | – | – | – | more than 35% | 79 mg/mL (≈ 221 mM) | 15 mg/mL (≈ 41.9 mM) |
